# Values of other authors in article PMC8982769 (Open Forum Infectious Diseases, 2022).
# Legend:
# [1] = humans
# [2] = up to 24 grams of parenteral HPβCD daily for 15 days
# [3] = within 6 to 12 hours after IV administration
# [4] = tested on: enterococci carrying vanA, vanB, and vanC genes; conditions: in vitro
# VRE = conditions: within 48 to 72 hours
Substance,Elimination half-life [1] [h],side effects [2],dose recovered in the urine [3] [%],MIC90 [4] [µg/mL],log kill (VRE) [log]
2-hydroxypropyl-β-cyclodextrin [HPβCD],1.7 to 1.9,no side effects were observed,100,–,–
Oritavancin diphosphate,–,–,–,≤ 0.5,> 3
